The conditions of series [1]: topical, compared to ALA; cited from earlier work.
Series [2] has as its system hair follicle. Put plainly: Pulsed PDT for removal of unwanted hair with the photosensitizer methylene blue: pain during irradiation. Particulars: for PAIN: 665 nm.
The conditions of series [3]: local anesthesia: infiltrating, spraying or topical solution for transdermal delivery; cited from earlier work.
For series [4], the system named is superficial basal cell carcinomas. Particulars: low irradiance of range 10-50 mW/cm^2; cited from earlier work.

Turning to `COC(=O)CCC(=O)CN` [methyl-ester-ALA], the Pain during illumination entry in series [1] is on record as “significantly less pain compared to ALA”.

For `CN(C)c1ccc2nc3ccc(=[N+](C)C)cc-3sc2c1` [methylene blue], the PAIN result in series [2] (5 s CW irradiation, 10 W/cm^2) is “very painful”; in series [2] (trial 1: 2 pulses, pulse on 2.5 s, pulse off 0.5 s, 0.33 Hz, 50 J/cm^2, 10 W/cm^2) it was “Very high to unbearable”; in series [2] (trial 2: 5 pulses, pulse on 1 s, pulse off 0.5 s, 0.67 Hz, 50 J/cm^2, 10 W/cm^2), “High”; in series [2] (trial 3: 10 pulses, pulse on 0.5 s, pulse off 0.5 s, 1.00 Hz, 50 J/cm^2, 10 W/cm^2), “Intermediate to small”; in series [2] (trial 4: 14 pulses, pulse on 0.35 s, pulse off 0.5 s, 1.18 Hz, 50 J/cm^2, 10 W/cm^2), “None”; in series [2] (trial 5: 14 pulses, pulse on 0.35 s, pulse off 0.1 s, 2.22 Hz, 50 J/cm^2, 10 W/cm^2), “None”. In addition, in series [2] (pulsed radiation), the “Effectiveness of pulsed PDT for removal of unwanted hair” value is “effective without pain”.

Regarding `CCN(CC)CC(=O)Nc1c(C)cccc1C` [lidocaine], in series [3], the “Improvement of PDT-associated discomfort and pain” value is “not produced any significant improvement”.

Turning to `NCC(=O)CCC(=O)O` [delta-ALA, δ-Aminolevulinic Acid], in series [4], the “Pain induced by PDT treatment” value is given as “no significant pain was reported”.

(Values after patent publication US20110082410A1 (priority 2009, published 2011).)
